Values belong to the compound of their own block, whether it stands above or below them.
Columns and labels:
[1] = ref Anderson et al., 2011; cited from earlier work
[2] = tested on: Chk2; settings: ref Jobson et al., cited from earlier work
[3] = molecular target: RSK2 (Homo sapiens, UniProt P51812); assay: IMAP fluorescence polarization kinase inhibition assay, RSK2; format: biochemical; settings: for IC50: read-out: IC50 RSK2, IMAP assay, 60 minutes at room temperature
[4] = molecular target: T1, Chk1 (Homo sapiens, UniProt O14757); assay: IMAP fluorescence polarization kinase inhibition assay, Chk1; format: biochemical; settings: for IC50: read-out: IC50 Chk1, IMAP assay, 60 minutes at room temperature
T1 sequence (O14757 1-476): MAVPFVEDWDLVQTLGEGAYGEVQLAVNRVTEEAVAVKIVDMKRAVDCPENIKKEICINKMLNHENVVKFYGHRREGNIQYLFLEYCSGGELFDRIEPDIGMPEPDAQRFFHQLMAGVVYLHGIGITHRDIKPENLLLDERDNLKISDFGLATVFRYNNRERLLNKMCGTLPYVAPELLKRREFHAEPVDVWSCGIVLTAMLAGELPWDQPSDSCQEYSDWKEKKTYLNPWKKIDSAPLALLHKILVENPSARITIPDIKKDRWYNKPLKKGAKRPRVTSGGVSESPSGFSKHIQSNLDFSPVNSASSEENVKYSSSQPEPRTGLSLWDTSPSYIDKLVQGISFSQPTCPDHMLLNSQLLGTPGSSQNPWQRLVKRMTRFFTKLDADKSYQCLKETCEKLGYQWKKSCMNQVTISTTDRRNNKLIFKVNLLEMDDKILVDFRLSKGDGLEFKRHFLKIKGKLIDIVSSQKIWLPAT

[5] = molecular target: recombinant human Chk2 (Homo sapiens, UniProt O96017); assay: IMAP fluorescence polarization kinase inhibition assay, Chk2; format: biochemical; settings: read-out: IC50 Chk2 Mean ±SD (n=3–4), 60 minutes at room temperature
[6] = positive control on each screening plate

RSK2, sequence (P51812 68-327 limits assumed): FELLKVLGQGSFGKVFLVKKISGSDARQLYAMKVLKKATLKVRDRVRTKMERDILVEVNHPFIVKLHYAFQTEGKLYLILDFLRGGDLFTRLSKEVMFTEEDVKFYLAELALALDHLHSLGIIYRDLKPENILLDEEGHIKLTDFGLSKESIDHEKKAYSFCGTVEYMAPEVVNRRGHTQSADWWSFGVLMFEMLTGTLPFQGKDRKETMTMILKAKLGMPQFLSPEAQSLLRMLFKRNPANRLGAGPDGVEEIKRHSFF
recombinant human Chk2, sequence (O96017 whole entry): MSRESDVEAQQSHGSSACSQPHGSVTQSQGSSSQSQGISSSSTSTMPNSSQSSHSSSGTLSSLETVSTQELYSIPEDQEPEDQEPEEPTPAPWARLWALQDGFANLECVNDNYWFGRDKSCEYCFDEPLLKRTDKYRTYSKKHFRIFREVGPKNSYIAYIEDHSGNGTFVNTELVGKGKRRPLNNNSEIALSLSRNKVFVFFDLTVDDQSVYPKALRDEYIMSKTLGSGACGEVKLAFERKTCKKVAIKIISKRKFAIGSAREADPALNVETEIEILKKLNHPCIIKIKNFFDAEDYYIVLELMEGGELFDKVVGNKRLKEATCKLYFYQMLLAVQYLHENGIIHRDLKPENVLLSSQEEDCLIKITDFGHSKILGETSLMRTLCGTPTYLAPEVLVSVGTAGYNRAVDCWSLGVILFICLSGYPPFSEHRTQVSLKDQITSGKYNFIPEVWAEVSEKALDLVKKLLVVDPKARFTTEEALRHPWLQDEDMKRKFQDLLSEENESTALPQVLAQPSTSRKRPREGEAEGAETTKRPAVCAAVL

SMILES: COc1cc2nc(-c3cc(F)ccc3O)nc(N[C@@H]3CNC[C@H]3C(C)(C)O)c2cc1OC [CCT241533]
Potentiation of cytotoxicity of PARP inhibitors [1]: potentiate the cytotoxicity of PARP inhibitors

SMILES: CC(=NNC(=N)N)c1ccc(NC(=O)Nc2ccc(C(C)=NNC(=N)N)cc2)cc1 [NSC 109555, 4,4'-Diacetyldiphenylurea-bis(guanylhydrazone)]
Activity in cellular assays [2]; 2007: inactive

SMILES: CN[C@@H]1C[C@H]2O[C@@](C)([C@@H]1OC)n1c3ccccc3c3c4c(c5c6ccccc6n2c5c31)C(=O)NC4 [staurosporine, reference compound]
Inhibition of RSK2 (positive control) [3, 6]: inhibits
Inhibition of Chk1 (positive control) [4, 6]: inhibits

IC50 [3]: > 100 µM
IC50 [5]: 69.6 ± 40.2 nM
IC50 [4]: > 100 µM
SMILES: OCC=CCO [PV976]

SMILES: CC(=NNC(=N)N)c1ccc(NC(=O)c2cc3cccc([N+](=O)[O-])c3[nH]2)cc1 [PV1019, 7-nitro-1H-indole-2-carboxylic acid {4-[1-(guanidinohydrazone)-ethyl]-phenyl}-amide]
Activity in cells against Chk2 [2]; 2009: active

SMILES: N/C(=N/N=C/c1cccnc1)N[N+](=O)[O-] [PV1531]
IC50 [3]: > 100 µM
IC50 [5]: 0.03 ± 0.03 nM
IC50 [4]: 86 µM

IC50 [3]: > 100 µM
IC50 [4]: 66 µM
SMILES: C/C(=N\NC1=NCCN1)c1ccc(NC(=O)c2cc3cccc([N+](=O)[O-])c3[nH]2)cc1 [PV1115]

From paper PMC3210331 (Journal of structural biology, 2011)
